Test [1] addresses T1, porcine pancreatic lipase (Sus scrofa, UniProt P00591).
T1 construct: purchased Sigma-Alrich Chemical Co
T1 sequence (P00591 1-450): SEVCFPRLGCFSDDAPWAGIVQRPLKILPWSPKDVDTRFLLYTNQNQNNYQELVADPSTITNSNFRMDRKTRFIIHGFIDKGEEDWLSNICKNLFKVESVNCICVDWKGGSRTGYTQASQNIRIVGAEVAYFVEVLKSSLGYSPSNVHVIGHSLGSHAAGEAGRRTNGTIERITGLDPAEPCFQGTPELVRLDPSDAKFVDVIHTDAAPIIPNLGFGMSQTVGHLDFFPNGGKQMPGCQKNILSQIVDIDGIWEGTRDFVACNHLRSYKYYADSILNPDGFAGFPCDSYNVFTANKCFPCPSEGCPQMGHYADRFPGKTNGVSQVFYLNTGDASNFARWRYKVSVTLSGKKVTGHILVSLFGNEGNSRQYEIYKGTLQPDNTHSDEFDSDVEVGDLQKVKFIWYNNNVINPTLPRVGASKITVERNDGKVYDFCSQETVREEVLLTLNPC
The test can be described thus: Pancreatic lipase inhibition. In kind it is biochemical. Particulars: read-out: inhibition percentage of lipase. The procedure: The method described by Kim et al. was used in this assay. […] The mixture was then incubated at 37°C for 37 mins. The reaction was started by the addition of 10 μl of p-nitrophenyl butyrate substrate (10 mM p-NPB) in dimethylformamide.

Test [2] addresses T2, pancreatic cholesterol esterase (Sus scrofa, UniProt A0A286ZKB1).
T2 sequence (A0A286ZKB1 95-682): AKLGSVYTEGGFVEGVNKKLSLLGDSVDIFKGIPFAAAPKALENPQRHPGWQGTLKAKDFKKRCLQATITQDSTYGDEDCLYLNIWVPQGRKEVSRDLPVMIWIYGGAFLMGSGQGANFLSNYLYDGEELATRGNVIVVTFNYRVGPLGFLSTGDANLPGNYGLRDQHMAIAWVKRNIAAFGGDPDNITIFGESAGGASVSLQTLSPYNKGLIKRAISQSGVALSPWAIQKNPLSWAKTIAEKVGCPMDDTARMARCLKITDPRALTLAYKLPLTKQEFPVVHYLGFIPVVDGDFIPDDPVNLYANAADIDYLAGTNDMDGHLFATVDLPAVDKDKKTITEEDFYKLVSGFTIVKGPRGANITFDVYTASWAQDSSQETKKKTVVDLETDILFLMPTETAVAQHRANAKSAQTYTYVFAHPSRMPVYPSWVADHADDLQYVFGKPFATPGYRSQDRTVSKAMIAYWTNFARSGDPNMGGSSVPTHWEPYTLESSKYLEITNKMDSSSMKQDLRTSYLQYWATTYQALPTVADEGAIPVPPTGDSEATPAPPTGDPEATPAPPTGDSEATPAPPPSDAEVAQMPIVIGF
The following applies: read-out: Cholesterol esterase IC50; p-NPB substrate.
Method: Briefly, 50 μl of the extracts at different concentrations (3.12, 6.25, 12.5, 25, 50, 100, and 200 μg/ml) was added to 50 μl of 5.16 mM taurocholic acid and 50 μl of an aqueous solution of cholesterol esterase and incubated for 10 mins at 25°C. Then, 50 μl of p-nitrophenyl butyrate substrate (0.2 mM) was added to the mixture and incubated for 5 mins at 25°C. Cholesterol esterase inhibitory activity was determined by measuring the hydrolysis of p-NPB to p-nitrophenol at 405 nm using an ELISA microplate reader (BK-EL10 C).
Anticholesterol esterase activity is given as IC50 values (the concentrations that inhibited 50% of the hydrolysis of pNPB to p-nitrophenol).

Test [3] in a line: ABTS radical scavenging. The following applies: 15 mins, 734 nm. Here is the method: ABTS scavenging activity was evaluated by the discoloration of the cationic radical ABTS^∗^+, as per the technique described by Arnao et al. with some modifications. Briefly, the ABTS reagent was obtained by mixing an ethanolic solution of ABTS (7.4 mM) and an aqueous solution of potassium persulfate (2.6 mM). After mixing, the solution was incubated in the dark for 24 hours. The ABTS solution obtained was diluted until an absorbance of 1.5 was obtained at 734 nm. Two hundred microliters of each extract or catechin at different concentrations (15.62, 31.25, 62.5, and 250 μg/ml) was added to 1800 μl of the ABTS solution prepared above. The mixture was incubated in the dark for 15 mins, and the absorbance was read with a spectrophotometer at 734 nm against the blank. Catechin was used as the standard. […] The IC50 was calculated as in DPPH.

Test [4] in a line: DPPH free radical scavenging. The following applies: 30 mins, 517 nm. Here is the method: The DPPH scavenging assay was conducted by the method of Sanchez-Moreno et al. with some modifications. DPPH (0.1 mM) stock solution was diluted in methanol, and the absorbance was adjusted to 1.5 at 517 nm wavelength. […] extracts (500 μl) at different concentrations (15.62, 31.25, 62.5, and 250 μg/ml) were mixed with 2000 μl of DPPH solution and read with the aid of a spectrophotometer at 517 nm after 30 mins of incubation in the dark.
(The DPPH test is a chemical assay of radical scavenging.)

The values that follow come from article PMC9106491, “In Vitro Antioxidant, Anti-Inflammatory, and Digestive Enzymes Inhibition Activities of Hydro-Ethanolic Leaf and Bark Extracts of Psychotria densinervia (K. Krause) Verdc” (Advances in Pharmacological and Pharmaceutical Sciences, 2022).

Values joined by “and” are separate entries in the source; they are usually repeats but may differ in a detail not shown here. Identical values can stand only once.

The inhibition is how much of the control response was suppressed. What is called IC50 is the midpoint of a concentration-inhibition curve.

As for `CCCCCCCCCCC[C@@H](C[C@@H]1OC(=O)[C@H]1CCCCCC)OC(=O)[C@H](CC(C)C)NC=O` [orlistat], in test [1], the inhibition at 200 µg/mL is 97.83 ± 0.34%. For the same compound, the concentration for half-maximal inhibition (IC50) in test [2] is 110 µM. For `O.Oc1cc(O)c2c(c1)O[C@H](c1ccc(O)c(O)c1)[C@@H](O)C2` [catechin], in test [3], the “ABTS IC50” value stood at 33.48 ± 2.02 µg/mL.

As to `O=C1O[C@H]([C@@H](O)CO)C(O)=C1O` [ascorbic acid], the “DPPH IC50” value in test [4] was 71.78 ± 6.37 µg/mL and 71.98 ± 1.21 µg/mL.
